Results taken from patent publication US20070015232A1, “Mitotic index assay” (DiscoveRx, Inc., priority 2005, published 2007).

Key:
[1] = tested on: C2C12+EA-NLS/NRS+GR-PL cells; test: EFC mitotic index assay, C2C12+EA-NLS/NRS+GR-PL cells (Stanford GR cells); format: cell-based, mouse; settings: for Avg luminescence readout / R1 luminescence readout / R3 luminescence readout / Ratio (Avg vs 0 conc): 24 hours, 30 min read
Experimental: (§1) In all experiments described, 20,000 cells/well were plated in a 96 well Corning clear bottom white plate in a total volume of 100 μL. The cells were treated for 24 hours with 5 μL of either the appropriate vehicle control or varying concentrations of the six compounds listed above. The next day, 100 μL of Tropix/ABI Gal screen cell lysis buffer/substrate mixture (24:1 ratio of component) was added to the cells/media and the plate was read on the Victor II luminescent plate reader at 30, 60 and 120 minutes after the lysis/substrate addition.
(§2) The initial test of the cell cycle arresting compounds was performed on a double stable cell line having both of the constructs expressing the EA-NLS/NRS and GR-PL. (PL is β-galactosidase enzyme donor fragment and EA is the enzyme acceptor fragment available from DiscoveRx, Fremont, CA.). The parental line, C2C12 is derived from mouse muscle cells. In the experiments in which EA-NLS/NRS and GR-PL are expressed in the C2C12 parental cell line, the constructs were generated by subcloning the human GR sequence into a MFG-based retroviral vector that had been molecularly altered in a lab at Stanford. An MFG vector is described in U.S. Pat. No. 6,544,771. The EA-NLS/NRS fragment was subcloned into a wzl-based retroviral vector again molecularly altered in a lab at Stanford. In the experiments performed using a CHO-K1 parental cell line background the EA-NLS/NRS was subcloned into the Kpn I and Xba I sites of pcDNA3.1 Hygro vector from Invitrogen (catalog #V870-20). The plasmid was introduced into the cells via FuGene6 (Roche) transfection reagent. Cells were selected in the presence of 250 μg/mL of Hygromycin and single cell clones isolated that expressed the EA-NLS/NRS. The human GR gene was cloned by PCR and subcloned into the Xho I and Bam HI sites of the DiscoveRx vector-pCMV-myc-PL (C3). The plasmid was introduced into the selected EA-NLS/NRS expressing clone isolated above by FuGene 6 transfection. Another round of screening in the presence of 300-500 μg/mL of G418 was used to select GR-PL transfected clones. Clonal selection was performed to finally identify the clone that was used in these studies. In the studies using the CHO-K1+cyto-EA and cJUN-PL, the same Invitrogen pcDNA3.1 Hygro vector was used to express EA. In this case, the EA fragment was subcloned into the Kpn I/Not I sites of pcDNA3.1 Hygro. The plasmid DNA was introduced as described above using FuGene6 reagent. Cells were selected in the presence of 250 μg/mL of hygromycin and clonal selection was performed. The c-Jun gene was generated by PCR using an existing template copy of the gene and then subcloned into the Xho I/Bam HI sites of pCMV-PL-myc (C3).

[2] = tested on: CHO-K1+EA-NLS/NRS+GR-PL cells; test: EFC mitotic index assay, CHO-K1+EA-NLS/NRS+GR-PL cells, antibiotic selected pool (DX M19/GR pool); format: cell-based; settings: 24 hours, 30 min read
Experimental: as §1, §2
In the next experiment, an antibiotic selected pool population of CHO-K1 cells that express EA-NLS/NRS and GR-PL were tested with the same six set of cell cycle blocking compounds. […] FIGS. 2a and 2b show the immunofluorescence localization of EA and GR-PL in that the blue DAPI nuclear staining can be seen to be concentrated in the nucleus, while the green fluorescein stain on the antibody (from Abcam PLC) to the glucocorticoid receptor is seen in the cytoplasm. […] Again, six tables are presented one for each of the six drugs tested.
This only occurs with compounds that block the cells in mitosis, allowing EA and ProLabel to complement.

[3] = tested on: Clone #69 CHO-K1 cells expressing EA-NLS/NRS and GR-PL; test: EFC assay in stable clone #69 (CHO-K1, EA-NLS/NRS and GR-PL) with or without RU486 pre-incubation; format: cell-based; settings: for effect of incubation with RU486 on the EFC response (in words): 10 μM RU486 pre-incubation for one hour; for Avg luminescence readout / R1 luminescence readout / R3 luminescence readout / Ratio (Avg vs 0 conc): overnight, vehicle pre-incubation
Experimental: In the next experiment, a stable clone (clone #69) expressing both EA-NLS/NRS and GR-PL was isolated in a CHO-K1 parental background. […] 20,000 cells/well were plated in a 96 well white coming multi-well plate and allowed to adhere overnight. The next day, the cells were washed two times with serum free F12 media and 100 μL of serum free F12 media was added to the cells. The cells were then incubated in either vehicle (ethanol-1% final concentration) or 10 μM RU486 for one hour. To the cells, three different concentrations of dexamethasone (300, 100, 30 μM) (an agonist of GR), RU486 (30, 10, 3.33 μM), colchicine (1, 0.3, 0.1 μ/mL) or nocodazole (10, 3.33, 1.11 μg/mL) were added and the incubation went overnight at 37° C. with 5% CO2. The next day, the media was aspirated off and 100 μL of Tropix/ABI Gal screen cell lysis/substrate reagent was added to the cells. The plate was read on the Victor II reader at 30, 60 and 120 minutes.

[4] = tested on: CHO-K1+cyto-EA cells transfected with cJUN-PL; test: EFC mitotic index assay, CHO-K1+cyto-EA cells transiently transfected with cJUN-PL; format: cell-based; settings: for Avg luminescence readout / R1 luminescence readout / R3 luminescence readout / Ratio (Avg vs 0 conc): overnight; for increase in EFC activity: overnight incubation
Experimental: as §2
To further test the concept of sequestering of one β-galactosidase enzyme fragment in the nucleus (in this case PL) while localizing the other component in the cytoplasm (in this case EA) the following experiment was carried out. […] The cyto-EA cells were transiently transfected with cJUN-PL plasmid DNA. Two days after the transfection, the cells were re-plated into a 96 well Corning white clear bottom multiwell plate at 20,000 cells/well. The cells were allowed to adhere overnight and the next day were treated with titrating concentrations of the six different cell cycle blocking compounds. The incubation was carried out overnight. The next day the media was removed from the cells and 100 μL of Tropix/ABI Gal screen cell lysis/substrate reagent was added to the cells.

[5] = High conc (nocodazole 10 μg/mL, colchicine 1 μ/mL, dexamethasone 300 μM, RU486 30 μM)
[6] = Low conc (nocodazole 1.11 μg/mL, colchicine 0.1 μ/mL, dexamethasone 30 μM, RU486 3.33 μM)
[7] = Med conc (nocodazole 3.33 μg/mL, colchicine 0.3 μ/mL, dexamethasone 100 μM, RU486 10 μM)

## COC(=O)Nc1nc2ccc(C(=O)c3cccs3)cc2[nH]1 [Nocodazole, nocodazole]
[1]; 0.3 μg/mL
  Avg luminescence readout: 4443
  R1 luminescence readout: 4243
  R3 luminescence readout: 4599
  Ratio (Avg vs 0 conc): 1
[1]; 1.0 μg/mL
  Avg luminescence readout: 6354
  R1 luminescence readout: 6029
  R3 luminescence readout: 6678
  Ratio (Avg vs 0 conc): 2
[1]; 3.3 μg/mL
  Avg luminescence readout: 6068
  R1 luminescence readout: 5669
  R3 luminescence readout: 6360
  Ratio (Avg vs 0 conc): 2
[1]; 10.0 μg/mL
  Avg luminescence readout: 5867
  R1 luminescence readout: 4401
  R3 luminescence readout: 5806
  Ratio (Avg vs 0 conc): 2
[1]; treatment 1-10 μg/mL
  increase in EFC activity: ~2 fold
[2]; 0.3 μg/mL
  Avg luminescence readout: 15528
  R1 luminescence readout: 15003
  R3 luminescence readout: 13585
  Ratio (Avg vs 0 conc): 2
[2]; 1.0 μg/mL
  Avg luminescence readout: 24777
  R1 luminescence readout: 23225
  R3 luminescence readout: 24165
  Ratio (Avg vs 0 conc): 3
[2]; 3.3 μg/mL
  Avg luminescence readout: 23766
  R1 luminescence readout: 24010
  R3 luminescence readout: 23172
  Ratio (Avg vs 0 conc): 3
[2]; 10.0 μg/mL
  Avg luminescence readout: 25709
  R1 luminescence readout: 22978
  R3 luminescence readout: 28584
  Ratio (Avg vs 0 conc): 3
[3]
  effect of incubation with RU486 on the EFC response (in words): not blocked by the incubation with RU486
[3]; [5]
  Avg luminescence readout: 11592
  R1 luminescence readout: 11504
  R3 luminescence readout: 11616
  Ratio (Avg vs 0 conc): 4
[3]; [6]
  Avg luminescence readout: 11575
  R1 luminescence readout: 11488
  R3 luminescence readout: 11606
  Ratio (Avg vs 0 conc): 4
[3]; [7]
  Avg luminescence readout: 11445
  R1 luminescence readout: 11364
  R3 luminescence readout: 11457
  Ratio (Avg vs 0 conc): 4
[4]; 3.0 μg/mL
  Avg luminescence readout: 9887
  R1 luminescence readout: 9509
  R3 luminescence readout: 9751
  Ratio (Avg vs 0 conc): 1.4
[4]; 10.0 μg/mL
  Avg luminescence readout: 12728
  R1 luminescence readout: 11991
  R3 luminescence readout: 12371
  Ratio (Avg vs 0 conc): 1.8
[4]; 30.0 μg/mL
  Avg luminescence readout: 11870
  R1 luminescence readout: 10083
  R3 luminescence readout: 12287
  Ratio (Avg vs 0 conc): 1.6
[4]; 100.0 μg/mL
  Avg luminescence readout: 14898
  R1 luminescence readout: 13010
  R3 luminescence readout: 16060
  Ratio (Avg vs 0 conc): 2.1
[4]
  increase in EFC activity: ~2.1 fold

## COc1cc2c(c(OC)c1OC)-c1ccc(OC)c(=O)cc1[C@@H](NC(C)=O)CC2 [Colchicine, colchicine]
[1]; 0.03 μM
  Avg luminescence readout: 11782
  R1 luminescence readout: 10442
  R3 luminescence readout: 12456
  Ratio (Avg vs 0 conc): 1
[1]; 0.1 μM
  Avg luminescence readout: 9170
  R1 luminescence readout: 6763
  R3 luminescence readout: 10724
  Ratio (Avg vs 0 conc): 1
[1]; 0.3 μM
  Avg luminescence readout: 11243
  R1 luminescence readout: 11132
  R3 luminescence readout: 12160
  Ratio (Avg vs 0 conc): 1
[1]; 1 μM
  Avg luminescence readout: 12083
  R1 luminescence readout: 11891
  R3 luminescence readout: 11866
  Ratio (Avg vs 0 conc): 1
[2]; 0.03 μM
  Avg luminescence readout: 3412
  R1 luminescence readout: 3128
  R3 luminescence readout: 3727
  Ratio (Avg vs 0 conc): 1
[2]; 0.1 μM
  Avg luminescence readout: 5814
  R1 luminescence readout: 6507
  R3 luminescence readout: 4886
  Ratio (Avg vs 0 conc): 2
[2]; 0.3 μM
  Avg luminescence readout: 7251
  R1 luminescence readout: 7078
  R3 luminescence readout: 7341
  Ratio (Avg vs 0 conc): 3
[2]; 1 μM
  Avg luminescence readout: 11843
  R1 luminescence readout: 10671
  R3 luminescence readout: 13178
  Ratio (Avg vs 0 conc): 4
[3]
  effect of incubation with RU486 on the EFC response (in words): not blocked by the incubation with RU486
[3]; [5]
  Avg luminescence readout: 1623
  R1 luminescence readout: 1850
  R3 luminescence readout: 1323
  Ratio (Avg vs 0 conc): 4
[3]; [6]
  Avg luminescence readout: 1136
  R1 luminescence readout: 1274
  R3 luminescence readout: 1007
  Ratio (Avg vs 0 conc): 3
[3]; [7]
  Avg luminescence readout: 1241
  R1 luminescence readout: 1345
  R3 luminescence readout: 1073
  Ratio (Avg vs 0 conc): 3
[4]; 0.3 μg/mL
  Avg luminescence readout: 8548
  R1 luminescence readout: 7491
  R3 luminescence readout: 9730
  Ratio (Avg vs 0 conc): 1.2
[4]; 1.0 μg/mL
  Avg luminescence readout: 10762
  R1 luminescence readout: 11290
  R3 luminescence readout: 9929
  Ratio (Avg vs 0 conc): 1.5
[4]; 3.0 μg/mL
  Avg luminescence readout: 13255
  R1 luminescence readout: 12822
  R3 luminescence readout: 13005
  Ratio (Avg vs 0 conc): 1.9
[4]; 10.0 μg/mL
  Avg luminescence readout: 14719
  R1 luminescence readout: 13772
  R3 luminescence readout: 14302
  Ratio (Avg vs 0 conc): 2.1
[4]
  increase in EFC activity: ~2.1 fold
